60 compounds from US7888363B2, “Viral polymerase inhibitors” (Boehringer Ingelheim International GmbH, priority 2003, dated 2011) can be followed below.

Chain of hepatitis C virus RNA dependant polymerase (NS5B) (P26663 2420-3010): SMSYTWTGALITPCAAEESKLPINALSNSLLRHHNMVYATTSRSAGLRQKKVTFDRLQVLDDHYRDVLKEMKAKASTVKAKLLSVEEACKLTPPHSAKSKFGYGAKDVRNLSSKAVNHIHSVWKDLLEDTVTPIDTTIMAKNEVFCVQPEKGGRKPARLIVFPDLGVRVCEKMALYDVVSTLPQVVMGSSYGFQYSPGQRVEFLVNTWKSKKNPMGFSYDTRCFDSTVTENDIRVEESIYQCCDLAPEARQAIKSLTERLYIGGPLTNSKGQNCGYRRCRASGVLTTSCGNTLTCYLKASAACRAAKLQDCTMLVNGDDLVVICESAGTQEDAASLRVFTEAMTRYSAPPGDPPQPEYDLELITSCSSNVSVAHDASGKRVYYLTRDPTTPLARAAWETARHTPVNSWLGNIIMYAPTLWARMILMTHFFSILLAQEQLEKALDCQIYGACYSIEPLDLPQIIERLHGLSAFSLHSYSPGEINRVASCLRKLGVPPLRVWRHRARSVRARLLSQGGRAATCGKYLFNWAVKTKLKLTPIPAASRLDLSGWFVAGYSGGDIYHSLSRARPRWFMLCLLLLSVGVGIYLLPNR

The first test has as its target hepatitis C virus RNA dependant polymerase (NS5B) (Hepatitis C virus genotype 1b, UniProt P26663). The experiment in a line: Inhibition of NS5B RNA dependent RNA polymerase activity. The test is classed as biochemical. Particulars: Table 1; HCV NS5B polymerase. The method, then: A suitable assay is described in the examples.
Inhibition of NS5B RNA Dependent RNA Polymerase Activity
The compounds of the invention were tested for inhibitory activity against the hepatitis C virus RNA dependant polymerase (NS5B), according to protocol described in WO 03/010141
As for `CC(C)[C@@H](C(=O)O)N(C)C(=O)Cn1c(-c2ccoc2)c(C2CCCCC2)c2ccc(C(=O)O)cc21` [Example 1129], the 50% inhibitory concentration (IC50) (commonly the midpoint of a concentration-inhibition curve) was less than 0.2 µM.

The compound `NC(=O)[C@@H]1CCCN1C(=O)Cn1c(-c2ccoc2)c(C2CCCCC2)c2ccc(C(=O)O)cc21` [Example 1057] showed an IC50 of less than 0.2 µM.

In turn, `O=C(O)c1ccc2c(C3CCCCC3)c(-c3ccc(Br)cn3)n(CC(=O)N3CCC(C(=O)O)CC3)c2c1` [Example 1135] yielded an IC50 of 0.2 to 1 µM.

As for `CCN1CCN(C(=O)Cn2c(-c3ccoc3)c(C3CCCCC3)c3ccc(C(=O)O)cc32)CC1` [Example 1120], the IC50 is less than 0.2 µM.

Turning to `COCCNC(=O)Cn1c(-c2ccoc2)c(C2CCCCC2)c2ccc(C(=O)O)cc21` [Example 1107], the IC50 was 0.2 to 1 µM.

For the compound `O=C(Cn1c(-c2ccoc2)c(C2CCCCC2)c2ccc(C(=O)O)cc21)NCc1ccccc1` [Example 1063], the IC50 is 0.2 to 1 µM.

Compound `CC(C)(NC(=O)Cn1c(-c2ccoc2)c(C2CCCCC2)c2ccc(C(=O)O)cc21)C(=O)Nc1ccc(/C=C/C(=O)O)cc1` [Example 1051] came in with an IC50 of less than 0.2 µM.

On to `O=C(Cn1c(-c2ccc(Br)cn2)c(C2CCCCC2)c2ccc(C(=O)O)cc21)NNC(=O)NC[C@H]1CC[C@H](C(=O)O)CC1` [Example 1141], for which the IC50 fell in the range of 0.2 to 1 µM.

Regarding `O=C(O)c1ccc2c(C3CCCCC3)c(-c3ccoc3)n(CC(=O)N3CCC[C@H]3C(=O)O)c2c1` [Example 1066], the IC50 was less than 0.2 µM.

`O=C(O)c1ccc2c(C3CCCCC3)c(-c3csc(N4CCCCC4)n3)n(CC(=O)N3CCOCC3)c2c1` [Example 1040] gave an IC50 of 0.2 to 1 µM.

`CN(C)C(=O)Cn1c(-c2cc3ccccc3s2)c(C2CCCCC2)c2ccc(C(=O)O)cc21` [Example 1046] displayed an IC50 of 1 to 10 µM.

For `O=C(O)c1ccc2c(C3CCCCC3)c(-c3ccccn3)n(CC(=O)N3CCCC3)c2c1` [Example 1084], the IC50 lay in the range of 0.2 to 1 µM.

`O=C(O)/C=C/c1ccc(NC(=O)[C@]2(NC(=O)Cn3c(-c4ccoc4)c(C4CCCCC4)c4ccc(C(=O)O)cc43)CCNC2)cc1` [Example 1077] registered an IC50 of less than 0.2 µM.

As to `O=C(O)c1ccc2c(C3CCCCC3)c(-c3ccco3)n(CC(=O)N3CCC(N4CCCC4)CC3)c2c1` [Example 1038], the IC50 was less than 0.2 µM.

For the compound `O=C(O)CNC(=O)Cn1c(-c2ccoc2)c(C2CCCCC2)c2ccc(C(=O)O)cc21` [Example 1067], the IC50 was less than 0.2 µM.

`O=C(Cn1c(-c2ccoc2)c(C2CCCCC2)c2ccc(C(=O)O)cc21)NC1CCCCC1` [Example 1088] yielded an IC50 of 0.2 to 1 µM.

Consider `CNC(=O)Cn1c(-c2ccccn2)c(C2CCCCC2)c2ccc(C(=O)O)cc21` [Example 1143], for which the IC50 is 1 to 10 µM.

Consider `O=C(O)c1ccc2c(C3CCCCC3)c(-c3cc4ccccc4s3)n(CC(=O)N3CCOCC3)c2c1` [Example 1042], for which the IC50 was 0.2 to 1 µM.

Turning to `O=C(O)c1ccc2c(C3CCCC3)c(-c3ccccn3)n(CC(=O)N3CCCCC3)c2c1` [Example 1087], the IC50 fell in the range of 0.2 to 1 µM.

In turn, `CCCN(C)C(=O)Cn1c(-c2ccoc2)c(C2CCCCC2)c2ccc(C(=O)O)cc21` [Example 1008] returned an IC50 of less than 0.2 µM.

`O=C(Cn1c(-c2ccoc2)c(C2CCCCC2)c2ccc(C(=O)O)cc21)Nc1ccccc1` [Example 1060] had an IC50 of 0.2 to 1 µM.

As to `O=C(O)c1ccc2c(C3CCCCC3)c(-c3cc4ccccc4s3)n(CC(=O)N3CCC(N4CCCC4)CC3)c2c1` [Example 1049], the IC50 lay within 0.2 to 1 µM.

Take `CC(C)N(C(=O)Cn1c(-c2ccoc2)c(C2CCCCC2)c2ccc(C(=O)O)cc21)C(C)C` [Example 1108]: the IC50 lay within 0.2 to 1 µM.

In turn, `CCC(NC(=O)Cn1c(-c2ccoc2)c(C2CCCCC2)c2ccc(C(=O)O)cc21)C(=O)O` (stereo not drawn) [Example 1119] came in with an IC50 of less than 0.2 µM.

The compound `CN(C)C(=O)Cn1c(-c2ccoc2)c(C2CCCC2)c2ccc(C(=O)O)cc21` [Example 1044] had an IC50 of less than 0.2 µM.

The compound `CCN(CCN(C)C)C(=O)Cn1c(-c2ccoc2)c(C2CCCCC2)c2ccc(C(=O)O)cc21` [Example 1022] displayed an IC50 of 0.2 to 1 µM.

As for `CC1CN(C(=O)Cn2c(-c3ccoc3)c(C3CCCCC3)c3ccc(C(=O)O)cc32)CC(C)O1` (stereo not drawn) [Example 1020], the IC50 is less than 0.2 µM.

Staying with this test, now noted: Table 2; HCV NS5B polymerase.
In the case of `Cc1noc(C)c1S(=O)(=O)NC(=O)c1ccc2c(C3CCCCC3)c(-c3ccoc3)n(CC(=O)N3CCOCC3)c2c1` [Example 2034], the IC50 was less than 0.2 µM.

Consider `O=C(NS(=O)(=O)Cc1ccccc1)c1ccc2c(C3CCCCC3)c(-c3ccoc3)n(CC(=O)N3CCOCC3)c2c1` [Example 2003], for which the IC50 was less than 0.2 µM.

The compound `CC(C)c1cc(C(C)C)c(S(=O)(=O)NC(=O)c2ccc3c(C4CCCCC4)c(-c4ccoc4)n(CC(=O)N4CCOCC4)c3c2)c(C(C)C)c1` [Example 2043] displayed an IC50 of 0.2 to 1 µM.

Turning to `CS(=O)(=O)NC(=O)c1ccc2c(C3CCCCC3)c(-c3ccoc3)n(CC(=O)N3CCOCC3)c2c1` [Example 2002], the IC50 was less than 0.2 µM.

In turn, `O=C(NS(=O)(=O)c1c(Cl)sc(Cl)c1Br)c1ccc2c(C3CCCCC3)c(-c3ccoc3)n(CC(=O)N3CCOCC3)c2c1` [Example 2029] showed an IC50 of less than 0.2 µM.

For the compound `O=C(NS(=O)(=O)c1ccccc1)c1ccc2c(C3CCCCC3)c(-c3ccoc3)n(CC(=O)N3CCOCC3)c2c1` [Example 2001], the IC50 is less than 0.2 µM.

Regarding `O=C(NS(=O)(=O)c1ccccc1Br)c1ccc2c(C3CCCCC3)c(-c3ccoc3)n(CC(=O)N3CCOCC3)c2c1` [Example 2011], the IC50 is less than 0.2 µM.

Compound `COc1cc(C)ccc1S(=O)(=O)NC(=O)c1ccc2c(C3CCCCC3)c(-c3ccoc3)n(CC(=O)N3CCOCC3)c2c1` [Example 2040] displayed an IC50 of less than 0.2 µM.

In turn, `O=C(NS(=O)(=O)c1cccc(Cl)c1)c1ccc2c(C3CCCCC3)c(-c3ccoc3)n(CC(=O)N3CCOCC3)c2c1` [Example 2010] displayed an IC50 of less than 0.2 µM.

Still in this test, the particulars now being: Table 3; HCV NS5B polymerase.
In turn, `CN1CCN(C(=O)Cn2c(-c3ccccn3)c(C3CCCCC3)c3ccc(C(=O)NC4(C(=O)Nc5ccc(/C=C/C(=O)O)cc5)CCC4)cc32)CC1` [Example 3007] came in with an IC50 of less than 0.2 µM.

Compound `O=C(O)C=Cc1ccc(NC(=O)C2(NC(=O)c3ccc4c(C5CCCC5)c(-c5ccccn5)n(CC(=O)N5CCCCC5)c4c3)CCC2)cc1` [Example 3011] gave an IC50 of less than 0.2 µM.

Staying with this test, now noted: Table 4; class ranges.
Take `O=C(NC1(c2csc(Cc3ccccc3)n2)CCC1)c1ccc2c(C3CCCCC3)c(-c3ccoc3)n(CC(=O)N3CCC(N4CCCC4)CC3)c2c1` [Example 4104]: the IC50 lay within 1 to 10 µM.

`CS(=O)(=O)NC(=O)c1ccc2c(C3CCCCC3)c(-c3ccoc3)n(CC(=O)N3CCC(N4CCCC4)CC3)c2c1` [Example 4109] registered an IC50 of less than 0.2 µM.

With `COC(=O)C(C)(C)NC(=O)c1ccc2c(C3CCCCC3)c(-c3ccoc3)n(CC(=O)N3CCOCC3)c2c1` [Example 4075], the IC50 lay within 0.2 to 1 µM.

In turn, `NC(=O)C1(NC(=O)c2ccc3c(C4CCCCC4)c(-c4ccoc4)n(CC(=O)N4CCOCC4)c3c2)COCOC1` [Example 4085] came in with an IC50 of less than 0.2 µM.

With `CN1CCN(C(=O)Cn2c(-c3ccoc3)c(C3CCCCC3)c3ccc(C(=O)NCc4ccc(F)cc4)cc32)CC1` [Example 4022], the IC50 lay within 0.2 to 1 µM.

`CC(C)C(CO)NC(=O)c1ccc2c(C3CCCCC3)c(-c3ccoc3)n(CC(=O)N3CCN(C)CC3)c2c1` (stereo not drawn) [Example 4012] showed an IC50 of 0.2 to 1 µM.

In turn, `CN(C)CCNC(=O)c1ccc2c(C3CCCCC3)c(-c3ccoc3)n(CC(=O)N3CCN(C)CC3)c2c1` [Example 4025] came in with an IC50 of 0.2 to 1 µM.

As to `CC(=O)Nc1nc(C2(NC(=O)c3ccc4c(C5CCCCC5)c(-c5ccoc5)n(CC(=O)N5CCC(N6CCCC6)CC5)c4c3)CCC2)cs1` [Example 4102], the IC50 was less than 0.2 µM.

For the compound `CN1CCN(C(=O)Cn2c(-c3ccoc3)c(C3CCCCC3)c3ccc(C(=O)NC(C)(C)Cc4ccccc4)cc32)CC1` [Example 4037], the IC50 is 1 to 10 µM.

`CN1CCN(C(=O)Cn2c(-c3ccoc3)c(C3CCCCC3)c3ccc(C(=O)NCc4ccc(S(N)(=O)=O)cc4)cc32)CC1` [Example 4032] came in with an IC50 of less than 0.2 µM.

The test is the same for the next values; noted with them: Table 5; HCV NS5B polymerase.
Turning to `CN(C)C(=O)CCn1c(-c2ccoc2)c(C2CCCCC2)c2ccc(C(=O)O)cc21` [Example 5003], the IC50 lay within 1 to 10 µM.

The same test, now with this note: Table 7; class ranges.
As for `NS(=O)(=O)c1ccc(CCNC(=O)c2ccc3c(c2)c(C2CCCCC2)c(-c2ccoc2)n3CC(=O)N2CCC(N3CCCC3)CC2)cc1` [Example 7032], the IC50 lay in the range of 1 to 10 µM.

With `O=C(O)CCc1cccc(NC(=O)c2ccc3c(c2)c(C2CCCCC2)c(-c2ccoc2)n3CC(=O)N2CCC(N3CCCC3)CC2)c1` [Example 7056], the IC50 was in the range of 1 to 10 µM.

In turn, `CCN1CCCC1CNC(=O)c1ccc2c(c1)c(C1CCCCC1)c(-c1ccoc1)n2CC(=O)N1CCC(N2CCCC2)CC1` (stereo not drawn) [Example 7013] returned an IC50 of 1 to 10 µM.

As to `NC(=O)C1CCN(C(=O)c2ccc3c(c2)c(C2CCCCC2)c(-c2ccoc2)n3CC(=O)N2CCC(N3CCCC3)CC2)CC1` [Example 7035], the IC50 was in the range of 1 to 10 µM.

Take `O=C(O)/C=C/c1ccc(NC(=O)C2(NC(=O)c3ccc4c(c3)c(C3CCCCC3)c(-c3ccoc3)n4CC(=O)N3CCC(N4CCCC4)CC3)CCC2)cc1` [Example 7062]: the IC50 was in the range of 1 to 10 µM.

The compound `Cc1c(C(=O)O)ccc2c(C3CCCCC3)c(-c3ccoc3)n(CC(=O)N3CCC(N4CCCC4)CC3)c12` [Example 7004] came in with an IC50 of less than 0.2 µM.

In the case of `CN(C)C(=O)c1ccc2c(c1)c(C1CCCCC1)c(-c1ccoc1)n2CC(=O)N1CCC(N2CCCC2)CC1` [Example 7033], the IC50 lay in the range of 1 to 10 µM.

`O=C(NC(CCO)c1ccccc1)c1ccc2c(c1)c(C1CCCCC1)c(-c1ccoc1)n2CC(=O)N1CCC(N2CCCC2)CC1` (stereo not drawn) [Example 7049] gave an IC50 of 1 to 10 µM.

Consider `CNC(=O)c1ccc2c(c1)c(C1CCCCC1)c(-c1ccoc1)n2CC(=O)N1CCC(N2CCCC2)CC1` [Example 7034], for which the IC50 lay in the range of 1 to 10 µM.

Take `O=C(Nc1ccc(N2CCOCC2)cc1)c1ccc2c(c1)c(C1CCCCC1)c(-c1ccoc1)n2CC(=O)N1CCC(N2CCCC2)CC1` [Example 7018]: the IC50 lay in the range of 1 to 10 µM.

Compound `CN(C)C(=O)Cn1c(-c2ccoc2)c(C2CCCCC2)c2cc(O)c(C(=O)O)cc21` [Example 7009] yielded an IC50 of 1 to 10 µM.
